Laboratory results taken from paper PMC7017090, “Repaglinide Silences the FOXO3/Lumican Axis and Represses the Associated Metastatic Potential of Neuronal Cancer Cells” (Cells, 2019).

B1: FoxP3 oligonucleotide (FAM) (dsDNA)
DNA 1: AGCAAAGTTGTTTTTGATAATG
DNA 2: CATTATCAAAAACAACTTTGCT

Columns and labels:
FOXO3 = FOXO3 (Homo sapiens, UniProt O43524); test: fluorescence polarization displacement of IRE-FAM oligonucleotide from recombinant FOXO3-DBD (Ki calculated from IC50 […]); supported by FAM-EMSA; format: binding
FOXO3-DBD = FOXO3-DBD (human, UniProt O43524 156-269); test: EMSA; 1 uM protein, 100 nM DNA; 'high affinity'; Not stated; FPA and FAM-EMSA as described in ref 24; details: protein: recombinant; blunt
Chain of FOXO3-DBD (O43524 156-269): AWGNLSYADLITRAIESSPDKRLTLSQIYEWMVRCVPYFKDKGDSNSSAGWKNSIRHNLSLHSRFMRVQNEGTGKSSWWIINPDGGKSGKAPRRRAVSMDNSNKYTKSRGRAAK

Chain of FOXO3 (O43524 156-269): as above

Molecule	Ki (FOXO3) [µM]	binding result (FOXO3-DBD)
CCOc1cc(CC(=O)N[C@@H](CC(C)C)c2ccccc2N2CCCCC2)ccc1C(=O)O [RPG, repaglinide]	24.9	–
B1	–	binds
